{"source": "patent US5348969A", "about": "“Diphenyloxazolyl-oxazoles as platelet aggregation inhibitors” (Bristol-Myers Squibb Company, priority 1992, dated 1994)"}
{"test_system": "ADP-induced aggregation of human blood platelets in platelet-rich-plasma", "assay": "In vitro inhibition of ADP-induced human platelet aggregation (aggregometer method, PRP)", "type": "cell-based", "details": "Homo sapiens, Platelet, read-out: IC50 (human PRP vs ADP), human PRP, incubated at about 37° C. for about 3 minutes prior to ADP", "method": "(§1) The aggregometer method of Born, G. V. R., J. Physiol., (London), 162, 67-68, (1962) as modified by Mustard, J. F., et al., J. Lab. Clin. Med., 64, 548-599, (1964) was used to assess the in vitro activity of the various compounds as to the inhibition of adenosine diphosphate (ADP) and collagen-induced platelet aggregation. The human volunteer donor's arm is cleansed with 70% ethyl alcohol. A sterile 20 ml syringe and needle are used to withdraw 20 ml of blood. The blood is immediately added to a test tube containing 3.8% sodium citrate to prevent clotting (1 part citrate to 9 parts blood).\n(§2) Platelet rich plasma (PRP) was separated by centrifugation for 10 minutes at 1000 rpm (140×g) from citrated (3.8%) human blood. All glassware used for preparation of PRP is silicon treated. ADP in final concentration of 0.5 mcg/mL or 0.05 mL of a collagen suspension prepared according to the method described by Evans, G., et al., J. Exp. Med., 128, 877-894, (1968) was used to induce aggregation. The various compounds tested were dissolved in dimethylsulfoxide (DMSO) so that 5 mcl added to the platelet rich plasma would yield the desired test concentration. Vehicle control trials were done and compared with aggregation induced in platelet rich plasma containing various concentrations of the test compounds. Dose response curves were obtained and Inhibitor Concentration (IC50) values calculated.\n(§3) The target compounds were evaluated as inhibitors of ADP-induced aggregation of human blood platelet in platelet-rich-plasma (PRP) in vitro. The test compounds were incubated at about 37° C. in PRP for about 3 minutes prior to the addition of sufficient ADP to provide final ADP concentration of […].", "units": {"IC50": "µg/mL"}}
{"smiles": "O=C(O)COc1cccc(-c2ncoc2-c2nc(-c3ccccc3)c(-c3ccccc3)o2)c1", "note": "[Compound 5]", "IC50": 0.07}
{"smiles": "O=C(O)COc1cccc(-c2oc(-c3ccccc3)nc2-c2nc(-c3ccccc3)c(-c3ccccc3)o2)c1", "note": "[Compound 26, [3-[4-(4,5-Diphenyl-2-oxazolyl)-2-phenyl-5-oxazolyl]phenoxy]acetic acid]", "IC50": 32}
{"smiles": "Cc1nc(-c2nc(-c3ccccc3)c(-c3ccccc3)o2)c(-c2cccc(OCC(=O)O)c2)o1", "note": "[Compound 24]", "IC50": 0.02}
{"smiles": "COC(=O)COc1cccc([C@@H]2OC=N[C@H]2c2nc(-c3ccccc3)c(-c3ccccc3)o2)c1", "note": "(relative stereo) [Compound 31, Methyl[3-[4-(4,5-diphenyl-2-oxazolyl)-4,5-dihydro-5-oxazolyl]phenoxy]acetate]", "IC50": 0.08}
{"smiles": "COC(=O)COc1cccc(-c2c(-c3nc(-c4ccccc4)c(-c4ccccc4)o3)cnn2C)c1", "note": "[Compound 13, Methyl[3-[4-(4,5-diphenyl-2-oxazolyl)-1-methyl-5-pyrazolyl]phenoxy]acetate]", "IC50": 0.75}
{"smiles": "COC(=O)COc1cccc(-c2oc(-c3ccccc3)nc2-c2nc(-c3ccccc3)c(-c3ccccc3)o2)c1", "note": "[Compound 25, Methyl[3-[4-(4,5-diphenyl-2-oxazolyl) -2-phenyl-5-oxazolyl]phenoxy]acetate]", "IC50": 32}
{"smiles": "O=C(O)COc1cccc(-c2ccccc2-c2nc(-c3ccccc3)c(-c3ccccc3)o2)c1", "note": "[Compound 7, [2'-(4,5-Diphenyl-2-oxazolyl)-[1,1'-biphenyl]-3-yloxy]acetic acid]", "IC50": 5}
{"smiles": "Cn1ncc(-c2nc(-c3ccccc3)c(-c3ccccc3)o2)c1-c1cccc(OCC(=O)O)c1", "note": "[Compound 14]", "IC50": 0.5}
{"smiles": "COC(=O)COc1cccc(-c2oc(C)nc2-c2nc(-c3ccccc3)c(-c3ccccc3)o2)c1", "note": "[Compound 23, Methyl[3-[4-(4,5-diphenyl-2-oxazolyl)-2-methyl-5-oxazolyl]phenoxy]acetate]", "IC50": 0.13}
{"smiles": "COC(=O)COc1cccc(-c2[nH]ncc2-c2nc(-c3ccccc3)c(-c3ccccc3)o2)c1", "note": "[Compound 15, Methyl[3-[4-(4,5-diphenyl-2-oxazolyl)-5-pyrazolyl]phenoxy]acetate]", "IC50": 0.07}
{"smiles": "O=C(O)COc1cccc(-c2[nH]ncc2-c2nc(-c3ccccc3)c(-c3ccccc3)o2)c1", "note": "[Compound 16, [3-[4-(4,5-Diphenyl-2-oxazolyl)-5-pyrazolyl]phenoxy]acetic acid]", "IC50": 0.08}
{"smiles": "COC(=O)COc1cccc(C2OC(=O)NC2c2nc(-c3ccccc3)c(-c3ccccc3)o2)c1", "note": "(centres unmarked) [Compound 43, Methyl[3-[4-(4,5-diphenyl-2-oxazolyl)-2-oxo-5-oxazolidinyl]phenoxy]acetate]", "IC50": 5}
{"smiles": "COC(=O)COc1cccc(C(O)C(N)c2nc(-c3ccccc3)c(-c3ccccc3)o2)c1", "note": "(centres unmarked) [Compound 38, Methyl[3-[2-(4,5-diphenyl-2-oxazolyl)-2-amino-1-hydroxyethyl]phenoxy]acetate]", "IC50": 2.8}
{"smiles": "Cn1cc(-c2nc(-c3ccccc3)c(-c3ccccc3)o2)c(-c2cccc(OCC(=O)O)c2)n1", "note": "[Compound 12]", "IC50": 0.3}
{"smiles": "COC(=O)COc1cccc([C@H]2OC(C)=N[C@H]2c2nc(-c3ccccc3)c(-c3ccccc3)o2)c1", "note": "(relative stereo) [Compound 41, Methyl[3-[4-(4,5-diphenyl-2-oxazolyl)-4,5-dihydro-2-methyl-5-oxazolyl]phenoxy]acetate]", "IC50": 27}
{"smiles": "COC(=O)COc1cccc(C(O)C(NC=O)c2nc(-c3ccccc3)c(-c3ccccc3)o2)c1", "note": "(centres unmarked) [Compound 33, Methyl[3-[2-(4,5-diphenyl-2-oxazolyl)-2-(formylamino)-1-hydroxy-ethyl]phenoxy]acetate]", "IC50": 10}
{"smiles": "COC(=O)COc1cccc(-c2ncoc2-c2nc(-c3ccccc3)c(-c3ccccc3)o2)c1", "note": "[Compound 4]", "IC50": 0.174}
{"smiles": "COC(=O)COc1cccc([C@@H]2OC(C)=N[C@H]2c2nc(-c3ccccc3)c(-c3ccccc3)o2)c1", "note": "(relative stereo) [Compound 39, Methyl[3-[4-(4,5-diphenyl-2-oxazolyl)-4,5-dihydro-2-methyl-5-oxazolyl]phenoxy]acetate]", "IC50": 0.65}
{"smiles": "COC(=O)COc1cccc([C@H]2OC(c3ccccc3)=N[C@H]2c2nc(-c3ccccc3)c(-c3ccccc3)o2)c1", "note": "(relative stereo) [Compound 42, Methyl[3-[4-(4,5-diphenyl-2-oxazolyl)-4,5-dihydro-2-phenyl-5-oxazolyl]phenoxy]acetate]", "IC50": 32}
{"smiles": "COC(=O)COc1cccc(-c2nn(C)cc2-c2nc(-c3ccccc3)c(-c3ccccc3)o2)c1", "note": "[Compound 11, Methyl[3-[4-(4,5-diphenyl-2-oxazoly)-1-methyl-3-pyrazolyl]phenoxy]acetate]", "IC50": 1.12}
{"smiles": "COC(=O)COc1cccc([C@@H]2OC(c3ccccc3)=N[C@H]2c2nc(-c3ccccc3)c(-c3ccccc3)o2)c1", "note": "(relative stereo) [Compound 40, Methyl[3-[4-(4,5-diphenyl-2-oxazolyl)-4,5-dihydro-2-phenyl-5-oxazolyl]phenoxy]acetate]", "IC50": 10}
{"smiles": "O=CNC(c1nc(-c2ccccc2)c(-c2ccccc2)o1)C(O)c1cccc(OCC(=O)O)c1", "note": "(centres unmarked) [Compound 36]", "IC50": 6.5}
{"smiles": "COC(=O)COc1cccc(-c2ccccc2-c2nc(-c3ccccc3)c(-c3ccccc3)o2)c1", "note": "[Compound 6, Methyl[2'-(4,5-diphenyl-2-oxazolyl)-[1,1'-biphenyl]-3-yloxy]acetate]", "IC50": 32}
{"test_system": "ADP-induced aggregation of human blood platelets in platelet-rich-plasma", "assay": "In vitro inhibition of ADP-induced human platelet aggregation (aggregometer method, PRP)", "type": "cell-based", "details": "Homo sapiens, Platelet, read-out: percentage in brackets beside the IC50 entry 32 (inhibition of ADP-induced aggregation)", "method": "as §1, §2, §3", "units": {"inhibition at 32 µg/mL": "%"}}
{"smiles": "COC(=O)COc1cccc(-c2oc(-c3ccccc3)nc2-c2nc(-c3ccccc3)c(-c3ccccc3)o2)c1", "note": "[Compound 25, Methyl[3-[4-(4,5-diphenyl-2-oxazolyl) -2-phenyl-5-oxazolyl]phenoxy]acetate]", "inhibition at 32 µg/mL": 6}
{"smiles": "O=C(O)COc1cccc(C2OC(=O)NC2c2nc(-c3ccccc3)c(-c3ccccc3)o2)c1", "note": "(centres unmarked) [Compound 45, [3-[4-(4,5-Diphenyl-2-oxazolyl)-2-oxo-5-oxazolidinyl]phenoxy]acetic acid]", "inhibition at 32 µg/mL": 8}
{"smiles": "COC(=O)COc1cccc([C@H]2OC(c3ccccc3)=N[C@H]2c2nc(-c3ccccc3)c(-c3ccccc3)o2)c1", "note": "(relative stereo) [Compound 42, Methyl[3-[4-(4,5-diphenyl-2-oxazolyl)-4,5-dihydro-2-phenyl-5-oxazolyl]phenoxy]acetate]", "inhibition at 32 µg/mL": 15}
{"smiles": "COC(=O)COc1cccc(-c2ccccc2-c2nc(-c3ccccc3)c(-c3ccccc3)o2)c1", "note": "[Compound 6, Methyl[2'-(4,5-diphenyl-2-oxazolyl)-[1,1'-biphenyl]-3-yloxy]acetate]", "inhibition at 32 µg/mL": 34}
{"test_system": "ADP-induced aggregation of human blood platelets in platelet-rich-plasma", "assay": "In vitro inhibition of ADP-induced human platelet aggregation (aggregometer method, PRP)", "type": "cell-based", "details": "human PRP, incubated at about 37° C. for about 3 minutes prior to ADP", "method": "as §1, §2, §3", "units": {"IC50 (human PRP vs ADP)": "µg/mL"}}
{"smiles": "O=C(O)COc1cccc(C2OC(=O)NC2c2nc(-c3ccccc3)c(-c3ccccc3)o2)c1", "note": "(centres unmarked) [Compound 44, [3-[4-(4,5-Diphenyl-2-oxazolyl)-2-oxo-5-oxazolidinyl]phenoxy]acetic acid]", "IC50 (human PRP vs ADP)": 1}
{"smiles": "O=C(O)COc1cccc(C2OC(=O)NC2c2nc(-c3ccccc3)c(-c3ccccc3)o2)c1", "note": "(centres unmarked) [Compound 45, [3-[4-(4,5-Diphenyl-2-oxazolyl)-2-oxo-5-oxazolidinyl]phenoxy]acetic acid]", "IC50 (human PRP vs ADP)": 32}
{"smiles": "NC(c1nc(-c2ccccc2)c(-c2ccccc2)o1)C(O)c1cccc(OCC(=O)O)c1", "note": "(centres unmarked) [Compound 37]", "IC50 (human PRP vs ADP)": 0.9}
{"test_system": "platelet aggregation (human PRP vs ADP)", "assay": "not given", "details": "U.S. Pat. No. 4,460,598 / Drugs of the Future 11, 26 (1986); cited from earlier work"}
{"smiles": "O=C(O)CCCCCCCOc1nc(-c2ccccc2)c(-c2ccccc2)n1-c1ccccc1", "note": "[Octimibate]", "inhibition of platelet aggregation, in words": "broad spectrum inhibitor of platelet aggregation"}
{"test_system": "platelet aggregation (human PRP vs ADP)", "assay": "not given", "details": "human PRP vs ADP; U.S. Pat. No. 4,460,598 / Drugs of the Future 11, 26 (1986); cited from earlier work", "units": {"IC50 (human PRP vs ADP)": "µg/mL"}}
{"smiles": "O=C(O)CCCCCCCOc1nc(-c2ccccc2)c(-c2ccccc2)n1-c1ccccc1", "note": "[Octimibate]", "IC50 (human PRP vs ADP)": 1}
